From patent US5929038A, “Pharmaceutical preparations which inhibit hepatitis B virus (HBV) replication” (Choongwae Pharmaceutical Co., Ltd., priority 1992, dated 1999)
“And” between values parts separate entries of the source, which are not always exact repeats. Identical values can stand only once. “Also recorded” adds a separate entry of the source. Like-named read-outs stand apart in the source and are kept apart here.

Legend:
Sarcoma 180 cells = conditions: cited from earlier work
HBV DNA replication = experiment: Effects on HBV DNA replication in 2.2.15 cells in culture (intracellular HBV DNA and HBV virion DNA); type: cell-based, hepatitis B virus; conditions: for Intracellular HBV DNA, Mono. / Intracellular HBV DNA, RI (Replicating Intermediate): 24 hrs following the 9th day of treatment; for HBV Virion DNA, Day 0: Day 0, before first dose
[1] = tested on: liver damage caused by α-amantin intoxication; conditions: mice; cited from earlier work
gram positive bacteria = conditions: cited from earlier work
2.2.15 cells = experiment: Cell toxicity test (neutral red dye uptake); type: cell-based; conditions: plate 23
Method: Toxicity testing was performed in 96-well flat bottomed tissue culture plates. These cells were cultured and treated on same schedule as the test compounds used for antiviral evaluation (example 1). Each group at four concentrations was tested in triplicate cultures. Uptake of neutral red dye was used to determine the relative level of toxicity. The absorbance of internalized dye at 510 nm (A510) was used for the quantitative analysis. Values are presented as a percentage of the average A510 values (mean ± standard deviation) in 9 separate cultures of untreated cells maintained on the same 96-well plate as used for the test compound. The percentage of dye uptake in the 9 controlled cultures on plate 23 was 100±4.

mice = type: in vivo; conditions: for Alkaline phosphatase / SGOT / Triglyceride: serum at 24 hours; for Fatalities: 24 hours, ten mice
[2] = tested on: hepatic damage induced by carbon tetrachloride; conditions: laboratory animals; cited from earlier work
[3] = 30 μM + 30'Gly. (incubated 30 min with glycosidase)
[4] = 30 μM + Gly. (first group, 123AE/AF/BE/BF)
[5] = 30 μM + Gly. (second group, 123AG/AH/BG/BH)
[6] = 100 μM + 30'Gly. (incubated 30 min with glycosidase)
[7] = 300 μM + 30'Gly. (incubated 30 min with glycosidase)
[8] = 300 μM + Gly. (glucosidase, no incubation)
[9] = 1000 μM + 30'Gly. (incubated 30 min with glycosidase)
[10] = 1000 μM + Gly. (glucosidase, no incubation)

OCC1=CC(O)C2C=COC(O[C@@H]3O[C@H](CO)[C@@H](O)[C@H](O)[C@H]3O)C12 (stereo partly drawn) [Aucubin, 1,4,5, 7α-tetrahydro-5-hydroxy-17-(hydroxymethyl)cyclopenta[c]pyran-1-yl-β-D-glucopyranose]
Inhibitory effects on RNA and protein biosynthesis (Sarcoma 180 cells): can exert inhibitory effects on RNA and protein biosynthesis in Sarcoma 180 cells
inhibition of HBV DNA biosynthesis / antiviral activity (in words) (HBV DNA replication): exerts an antiviral activity aganist HBV infection; also recorded: marked inhibition of HBV DNA biosynthesis
Intracellular HBV DNA, Mono. (HBV DNA replication; [3]): 2.5 pg/μg cell DNA and 2.4 pg/μg cell DNA and 2.3 pg/μg cell DNA and 2.7 pg/μg cell DNA
Intracellular HBV DNA, RI (Replicating Intermediate) (HBV DNA replication; [3]): 92 pg/μg cell DNA and 68 pg/μg cell DNA and 59 pg/μg cell DNA
HBV Virion DNA, Day 0 (HBV DNA replication; 30 μM + 30'Gly.): 61 pg/ml culture medium and 79 pg/ml culture medium and 68 pg/ml culture medium
HBV Virion DNA, Day 3 (HBV DNA replication; 30 μM + 30'Gly.): 85 pg/ml culture medium and 94 pg/ml culture medium and 51 pg/ml culture medium and 75 pg/ml culture medium
HBV Virion DNA, Day 6 (HBV DNA replication; 30 μM + 30'Gly.): 70 pg/ml culture medium and 62 pg/ml culture medium and 55 pg/ml culture medium and 75 pg/ml culture medium
HBV Virion DNA, Day 9 (HBV DNA replication; 30 μM + 30'Gly.): 80 pg/ml culture medium and 48 pg/ml culture medium and 87 pg/ml culture medium and 91 pg/ml culture medium
Intracellular HBV DNA, Mono. (HBV DNA replication; [4]): 2.6 pg/μg cell DNA and 2.8 pg/μg cell DNA and 2.4 pg/μg cell DNA and 2.1 pg/μg cell DNA
Intracellular HBV DNA, RI (Replicating Intermediate) (HBV DNA replication; [4]): 21 pg/μg cell DNA and 27 pg/μg cell DNA and 22 pg/μg cell DNA and 26 pg/μg cell DNA
HBV Virion DNA, Day 0 (HBV DNA replication; [4]): 52 pg/ml culture medium and 76 pg/ml culture medium and 55 pg/ml culture medium
HBV Virion DNA, Day 3 (HBV DNA replication; [4]): 59 pg/ml culture medium and 77 pg/ml culture medium and 51 pg/ml culture medium
HBV Virion DNA, Day 6 (HBV DNA replication; [4]): 40 pg/ml culture medium and 48 pg/ml culture medium and 66 pg/ml culture medium and 59 pg/ml culture medium
HBV Virion DNA, Day 9 (HBV DNA replication; [4]): 15 pg/ml culture medium and 22 pg/ml culture medium
Intracellular HBV DNA, Mono. (HBV DNA replication; [5]): 2.6 pg/μg cell DNA and 2.8 pg/μg cell DNA and 2.4 pg/μg cell DNA and 2.1 pg/μg cell DNA
Intracellular HBV DNA, RI (Replicating Intermediate) (HBV DNA replication; [5]): 70 pg/μg cell DNA and 75 pg/μg cell DNA and 63 pg/μg cell DNA and 68 pg/μg cell DNA
HBV Virion DNA, Day 0 (HBV DNA replication; [5]): 67 pg/ml culture medium
HBV Virion DNA, Day 3 (HBV DNA replication; [5]): 94 pg/ml culture medium and 82 pg/ml culture medium and 97 pg/ml culture medium and 62 pg/ml culture medium
HBV Virion DNA, Day 6 (HBV DNA replication; [5]): 58 pg/ml culture medium and 61 pg/ml culture medium and 69 pg/ml culture medium
HBV Virion DNA, Day 9 (HBV DNA replication; [5]): 55 pg/ml culture medium and 72 pg/ml culture medium and 70 pg/ml culture medium and 67 pg/ml culture medium
Intracellular HBV DNA, Mono. (HBV DNA replication; [6]): 2.5 pg/μg cell DNA and 2.4 pg/μg cell DNA and 2.3 pg/μg cell DNA and 2.7 pg/μg cell DNA
Intracellular HBV DNA, RI (Replicating Intermediate) (HBV DNA replication; [6]): 33 pg/μg cell DNA and 32 pg/μg cell DNA and 27 pg/μg cell DNA and 26 pg/μg cell DNA
HBV Virion DNA, Day 0 (HBV DNA replication; 100 μM + 30'Gly.): 55 pg/ml culture medium and 51 pg/ml culture medium and 86 pg/ml culture medium
HBV Virion DNA, Day 3 (HBV DNA replication; 100 μM + 30'Gly.): 80 pg/ml culture medium and 49 pg/ml culture medium and 50 pg/ml culture medium and 57 pg/ml culture medium
HBV Virion DNA, Day 6 (HBV DNA replication; 100 μM + 30'Gly.): 50 pg/ml culture medium and 66 pg/ml culture medium and 41 pg/ml culture medium and 45 pg/ml culture medium
HBV Virion DNA, Day 9 (HBV DNA replication; 100 μM + 30'Gly.): 16 pg/ml culture medium
Intracellular HBV DNA, Mono. (HBV DNA replication; [7]): 2.4 pg/μg cell DNA and 2.6 pg/μg cell DNA and 1.9 pg/μg cell DNA and 2.0 pg/μg cell DNA
Intracellular HBV DNA, RI (Replicating Intermediate) (HBV DNA replication; [7]): 11 pg/μg cell DNA and 10 pg/μg cell DNA and 7 pg/μg cell DNA and 9 pg/μg cell DNA
HBV Virion DNA, Day 0 (HBV DNA replication; 300 μM + 30'Gly.): 88 pg/ml culture medium and 51 pg/ml culture medium and 50 pg/ml culture medium and 59 pg/ml culture medium
HBV Virion DNA, Day 3 (HBV DNA replication; 300 μM + 30'Gly.): 80 pg/ml culture medium and 55 pg/ml culture medium and 61 pg/ml culture medium
HBV Virion DNA, Day 6 (HBV DNA replication; 300 μM + 30'Gly.): 54 pg/ml culture medium and 39 pg/ml culture medium and 44 pg/ml culture medium
HBV Virion DNA, Day 9 (HBV DNA replication; 300 μM + 30'Gly.): 9 pg/ml culture medium and 7 pg/ml culture medium and 6 pg/ml culture medium and 8 pg/ml culture medium
Intracellular HBV DNA, Mono. (HBV DNA replication; [8]): 2.0 pg/μg cell DNA and 2.4 pg/μg cell DNA and 2.5 pg/μg cell DNA
Intracellular HBV DNA, RI (Replicating Intermediate) (HBV DNA replication; [8]): 7 pg/μg cell DNA and 6 pg/μg cell DNA and 5 pg/μg cell DNA and 9 pg/μg cell DNA
HBV Virion DNA, Day 0 (HBV DNA replication; 300 μM + Gly.): 54 pg/ml culture medium and 59 pg/ml culture medium and 77 pg/ml culture medium and 66 pg/ml culture medium
HBV Virion DNA, Day 3 (HBV DNA replication; 300 μM + Gly.): 66 pg/ml culture medium and 89 pg/ml culture medium and 98 pg/ml culture medium
HBV Virion DNA, Day 6 (HBV DNA replication; 300 μM + Gly.): 54 pg/ml culture medium and 48 pg/ml culture medium and 44 pg/ml culture medium and 51 pg/ml culture medium
HBV Virion DNA, Day 9 (HBV DNA replication; 300 μM + Gly.): 9 pg/ml culture medium and 7 pg/ml culture medium and 5 pg/ml culture medium and 6 pg/ml culture medium
Intracellular HBV DNA, Mono. (HBV DNA replication; [9]): 2.3 pg/μg cell DNA and 2.0 pg/μg cell DNA and 2.1 pg/μg cell DNA
Intracellular HBV DNA, RI (Replicating Intermediate) (HBV DNA replication; [9]): 3 pg/μg cell DNA and 2 pg/μg cell DNA and 4 pg/μg cell DNA
HBV Virion DNA, Day 0 (HBV DNA replication; 1000 μM + 30'Gly.): 84 pg/ml culture medium and 70 pg/ml culture medium and 79 pg/ml culture medium and 59 pg/ml culture medium
HBV Virion DNA, Day 3 (HBV DNA replication; 1000 μM + 30'Gly.): 67 pg/ml culture medium and 66 pg/ml culture medium and 78 pg/ml culture medium
HBV Virion DNA, Day 6 (HBV DNA replication; 1000 μM + 30'Gly.): 20 pg/ml culture medium and 17 pg/ml culture medium and 24 pg/ml culture medium
HBV Virion DNA, Day 9 (HBV DNA replication; 1000 μM + 30'Gly.): 2 pg/ml culture medium and 3 pg/ml culture medium
Intracellular HBV DNA, Mono. (HBV DNA replication; [10]): 2.2 pg/μg cell DNA and 2.1 pg/μg cell DNA and 2.3 pg/μg cell DNA and 2.6 pg/μg cell DNA
Intracellular HBV DNA, RI (Replicating Intermediate) (HBV DNA replication; [10]): 3 pg/μg cell DNA and 2 pg/μg cell DNA
HBV Virion DNA, Day 0 (HBV DNA replication; 1000 μM + Gly.): 64 pg/ml culture medium and 81 pg/ml culture medium and 80 pg/ml culture medium
HBV Virion DNA, Day 3 (HBV DNA replication; 1000 μM + Gly.): 70 pg/ml culture medium and 67 pg/ml culture medium
HBV Virion DNA, Day 6 (HBV DNA replication; 1000 μM + Gly.): 25 pg/ml culture medium and 18 pg/ml culture medium and 22 pg/ml culture medium and 20 pg/ml culture medium
HBV Virion DNA, Day 9 (HBV DNA replication; 1000 μM + Gly.): 1 pg/ml culture medium
Liver-protective activity against α-amantin [1]: protects the liver from damages caused by α-amantin intoxication in mice
Antibacterial activity (gram positive bacteria): Antibacterial activity was noted mainly on gram positive bacteria
Amount of dye uptake (2.2.15 cells; Aucubin + 30'GLY. (preincubated 30 min with glucosidase), 300 μM): 99 ± 2 % of control
Amount of dye uptake (2.2.15 cells; Aucubin + 30'GLY. (preincubated 30 min with glucosidase), 1000 μM): 99 ± 2 % of control
Amount of dye uptake (2.2.15 cells; Aucubin + 30'GLY. (preincubated 30 min with glucosidase), 3000 μM): 82 ± 2 % of control
Amount of dye uptake (2.2.15 cells; Aucubin + 30'GLY. (preincubated 30 min with glucosidase), 10,000 μM): 67 ± 3 % of control
Amount of dye uptake (2.2.15 cells; Aucubin + GLY. (glucosidase without preincubation), 300 μM): 99 ± 2 % of control
Amount of dye uptake (2.2.15 cells; Aucubin + GLY. (glucosidase without preincubation), 1000 μM): 99 ± 1 % of control
Amount of dye uptake (2.2.15 cells; Aucubin + GLY. (glucosidase without preincubation), 3000 μM): 93 ± 5 % of control
Amount of dye uptake (2.2.15 cells; Aucubin + GLY. (glucosidase without preincubation), 10,000 μM): 63 ± 6 % of control
Amount of dye uptake (2.2.15 cells; Aucubin alone, 300 μM): 99 ± 1 % of control
Amount of dye uptake (2.2.15 cells; Aucubin alone, 1000 μM): 100 ± 1 % of control
Amount of dye uptake (2.2.15 cells; Aucubin alone, 3000 μM): 85 ± 3 % of control
Amount of dye uptake (2.2.15 cells; Aucubin alone, 10,000 μM): 45 ± 3 % of control
Alkaline phosphatase (mice; 100 mg/kg i.p.): 236 IU/L
SGOT (mice; 100 mg/kg i.p.): 261 IU/L
Fatalities (mice; 100 mg/kg intraperitoneal single dose): 0 No.
Alkaline phosphatase (mice; 300 mg/kg i.p.): 157 IU/L
SGOT (mice; 300 mg/kg i.p.): 194 IU/L
Triglyceride (mice; 300 mg/kg i.p.): 35 mg/dL
Fatalities (mice; 300 mg/kg intraperitoneal single dose): 0 No.
Alkaline phosphatase (mice; 600 mg/kg i.p.): 135 IU/L
SGOT (mice; 600 mg/kg i.p.): 179 IU/L
Triglyceride (mice; 600 mg/kg i.p.): 39 mg/dL
Fatalities (mice; 600 mg/kg intraperitoneal single dose): 0 No.
SGOT (mice; 900 mg/kg i.p.): 162 IU/L
Triglyceride (mice; 900 mg/kg i.p.): 51 mg/dL
Fatalities (mice; 900 mg/kg intraperitoneal single dose): 0 No.
fatality (in words) (mice; 100-900 mg/kg i.p.): no fatality
activities of SGOT and alkaline phosphatase (mice; high dose): slight decline
serious toxic effect (in words) (mice; high dose): no serious toxic effect occurred
triglyceride contents (mice; high dose): elevated slightly
minimum fatal dose (mice; mouse, in vivo, ip): more than 900 mg/kg
Liver-protective activity against carbon tetrachloride [2]: protect the liver from hepatic damage induced by carbon tetrachloride intoxication
